{"source": "patent US4775676A", "about": "“Thiazolidine derivatives, process for their preparation and pharmaceutical compositions” (Chiesi Farmaceutici S.p.A., priority 1985, dated 1988)", "key": {"porcine gastric mucine": {"system": "porcine gastric mucine", "assay": "\"In vitro\" mucolytic activity (viscoelasticity of porcine gastric mucine)", "assay_type": "biochemical", "settings": "6% porcine gastric mucine, 25° C., 30 minutes, 0.075 Hz, versus control", "procedure": "\"In vitro\" mucolytic activity\nControl samples were similarly added with the vehicle only. After incubation at 25° C. for 30 minutes, the analysis of the rheologic characteristics was carried out by means of Contraves Low-Shear 30 sinus viscosimeter provided with an oscillating device for the study of the viscoelasticity. The dynamic measurements of the viscoelasticity were carried out at a single frequency (0.075 Hz), using an appropriate concentrical cylinder measurement system, particularly suited for bronchial mucus (Contraves MS-LS 1-1).\nThe rheogramm was recorded on X/Y Rikadenki 11T recorder and the […] determination was carried out by means of vectorial calculation.\nThe percent decreases versus control samples, reported in Table 1, were determined from the means of the values of said parameters (at least 7 replications per sample)."}, "mice": {"system": "mice", "assay": "Toxicity after single administration", "assay_type": "in vivo", "settings": "p.o., death-rate after 7 days", "procedure": "(§1) Toxicity after single administration\n(§2) IVA:NMRI (SPF) mice, fasted for 18 hours before treatment with water ad libitum, were used. The compounds, dissolved or suspended in a 0.2% Tween® 80 aqueous solution, were administered orally, at constant concentration (10%). According to the death-rate observed after 7 days from treatment, the approximate LD50 values, reported in Table 1, were interpolated on Probi ts chart."}, "respiratory tract": {"system": "respiratory tract", "assay": "Mucosecretodynamic activity, \"in vivo\" fluorescein test", "set-up": "species or system male IVA-NMRI (SPF) mice", "settings": "mice, p.o., 90 minutes before i.v. fluorescein, increase of fluorescein excretion; for ED50: Mus musculus, po", "procedure": "Mucosecretodynamic activity\nMale IVA-NMRI (SPF) mice, housed for at least 1 week under standard conditions, fasted (water ad libitum) for 18 hours before treatment, were used.\nThe compounds, dissolved or suspended in 20 ml/kg of a 0.2% Tween® 80 aqueous suspension, were administred orally 90 minutes before the intravenous injection of 1% (5 ml/kg) fluorescein. Animals treated p.o. with the only vehicle were used as a control group. After 30 minutes from the fluorescein injection the animals were killed and subjected to incannulation of the trachea. Then the respiratory tract was washed and the spectrophotometric dosage of the fluorescein was carried out against phosphate buffer on the so collected eluate, suitably diluted with phosphate buffer and centrifugated.\nThe amount of fluorescein was determined by means of a calibration curve prepared under the same experimental conditions and the excretion was expressed as ng/hour/10 g body weight. For each experimental session the percent increases of excretion versus controls were calculated."}, "[1]": {"assay": "Toxicity after single administration", "assay_type": "in vivo", "settings": "mouse, in vivo, po, mice, p.o., death-rate after 7 days, read-out: Acute toxicity LD50 approx.", "procedure": "as §1, §2"}}, "note": "Where a name gives a salt, the structure may show the parent alone."}
{"compound": "4-methyl-2-[(3-thiazolidyl)carbonyl]-cyclohexane-carboxylic acid lysine salt [Compound 11]", "values": [{"measurement": "\"in vitro\" % decrease elasticity (G')", "setting": "porcine gastric mucine", "result": 6, "unit": "%"}, {"measurement": "\"in vitro\" % decrease viscosity (.eta.)", "setting": "porcine gastric mucine", "result": 9, "unit": "%"}, {"measurement": "Acute toxicity LD50 approx.", "setting": "mice", "result": "> 4000", "unit": "mg/kg"}, {"measurement": "\"in vivo\" fluorescein test ED50", "setting": "respiratory tract", "result": 300, "unit": "mg/kg"}]}
{"compound": "CCC1SCCN1C(=O)C1C2C=CC(C2)C1C(=O)O", "note": "(centres unmarked) [Compound 2, 3-[3-[(2-Ethyl)-thiazolidine]carbonyl]-bicyclo-[2,2,1]-hepta-5-ene-2-carboxylic acid]", "values": [{"measurement": "\"in vitro\" % decrease elasticity (G')", "setting": "porcine gastric mucine", "result": 33, "unit": "%"}, {"measurement": "\"in vitro\" % decrease viscosity (.eta.)", "setting": "porcine gastric mucine", "result": 58, "unit": "%"}, {"measurement": "LD50 at 168 h", "setting": "[1]", "result": "~3000", "unit": "mg/kg"}]}
{"compound": "O=C(O)C1C2C=CC(C2)C1C(=O)N1CCSC1", "note": "(centres unmarked) [Compound 3, 3-[(3-thiazolidyl)-carbonyl]-bicyclo-[2,2,1]-hepta-5-ene-2-carboxylic acid]", "values": [{"measurement": "LD50 at 168 h", "setting": "[1]", "result": "~1500", "unit": "mg/kg"}, {"measurement": "ED50", "setting": "respiratory tract", "result": 170, "unit": "mg/kg"}]}
{"compound": "O=C(O)CCC(=O)N1CCSC1", "note": "[Compound 4, 4-oxo-4-(3-thiazolidyl)-butanoic acid]", "values": [{"measurement": "LD50 at 168 h", "setting": "[1]", "result": "~4000", "unit": "mg/kg"}]}
{"compound": "O=C(CCC(=O)N1CCSC1)N1CCSC1", "note": "[Compound 7, 1,4-Bis-(3-thiazolidyl)-1,4-dioxo-butane]", "values": [{"measurement": "LD50 at 168 h", "setting": "[1]", "result": "~3000", "unit": "mg/kg"}, {"measurement": "ED50", "setting": "respiratory tract", "result": "~750", "unit": "mg/kg"}]}
{"compound": "N[C@@H](CSCC(=O)N1CCSC1)C(=O)O", "note": "[Compound 8, 2-Amino-3-[[(3-thiazolidyl)-carbonylmethyl]thio]propionic acid]", "values": [{"measurement": "LD50 at 168 h", "setting": "[1]", "result": "> 4000", "unit": "mg/kg"}]}
{"compound": "CC(SCC(=O)N1CCSC1)C(=O)NCC(=O)O", "note": "(centres unmarked) [Compound 9, 2-[2-[(3-thiazolidyl)carbonylmethylthio]-propionamide]acetic acid]", "values": [{"measurement": "\"in vitro\" % decrease elasticity (G')", "setting": "porcine gastric mucine", "result": 21, "unit": "%"}, {"measurement": "\"in vitro\" % decrease viscosity (.eta.)", "setting": "porcine gastric mucine", "result": 40, "unit": "%"}, {"measurement": "LD50 at 168 h", "setting": "[1]", "result": "> 4000", "unit": "mg/kg"}]}
{"compound": "O=C(O)CCC(=O)N1CCSC1", "note": "[Compound 10, 4-oxo-4-(3-thiazolidyl)butanoic acid sodium salt]", "values": [{"measurement": "Acute toxicity LD50 approx.", "setting": "mice; sodium salt, 10080 min", "result": "> 4000", "unit": "mg/kg"}]}
{"compound": "CC1(C(=O)N2CCSC2)CCC(C(=O)O)C1(C)C", "note": "(centres unmarked) [Compound 12, -3-[(3-thiazolidyl)-carbonyl]-2,2,3-trimethyl-cyclopentanecarboxylic acid lysine salt]", "values": [{"measurement": "\"in vitro\" % decrease elasticity (G')", "setting": "porcine gastric mucine", "result": 13, "unit": "%"}, {"measurement": "\"in vitro\" % decrease viscosity (.eta.)", "setting": "porcine gastric mucine", "result": 0, "unit": "%"}, {"measurement": "LD50 at 168 h", "setting": "[1]", "result": "> 4000", "unit": "mg/kg"}, {"measurement": "ED50", "setting": "respiratory tract", "result": 310, "unit": "mg/kg"}]}
{"compound": "CC(=O)N[C@@H](CS)C(=O)O", "note": "[N-acetyl-L-cysteine, N--acetyl-L-cysteine, reference compound]", "values": [{"measurement": "\"in vitro\" % decrease elasticity (G')", "setting": "porcine gastric mucine", "result": 39, "unit": "%"}, {"measurement": "\"in vitro\" % decrease viscosity (.eta.)", "setting": "porcine gastric mucine", "result": 53, "unit": "%"}]}
